Data from publication PMC10302582, “Unveiling the Potential of BenzylethyleneAryl–Urea Scaffolds for the Design of New Onco Immunomodulating Agents” (Pharmaceuticals, 2023).

Legend:
[1] = test system: HT-29 (colon adenocarcinoma); assay: MTT cell proliferation assay, HT-29; format: cell-based; conditions: Homo sapiens, HT-29; MTT, 48 h treatment; read-out: IC50 HT-29
Procedure: (§1) After the supernatant was discarded, we solved the formazan crystal in 100 µL of DMSO. The absorbance was then registered at 550 nm using a plate lector. For all concentrations of any compound, cell viability was expressed as the percentage of the ratio between the mean absorbance of the treated cells and the mean absorbance of the untreated cells. Three to five experiments were performed to establish the IC50 values (i.e., concentration half inhibiting cell proliferation, we used GraphPad Prism 7 software).

[2] = test system: human microvessel endothelial cells (HMEC-1); assay: MTT cell proliferation assay, HMEC-1; format: cell-based; conditions: 48 h treatment
Procedure: (§2) The action on cell proliferation caused by our developed compounds was studied using an MTT assay using the human tumor cell lines of HT-29 (colon adenocarcinoma) and A-549 (pulmonary adenocarcinoma), as well as toward the non-tumor cell line HEK-293 (human embryonic kidney cells), Jurkat T-cells and human microvessel endothelial cells (HMEC-1).
(§3) In general, 5 × 10^3 (HT-29, A549, HMEC-1, Jurkat and HEK-293) cells per well were seeded in 96-well plates with 1:1 dilutions of the compounds in a volume of 100 μL of the cell media. The 3-(4,5-dimethylthiazol-2-yl)-2,5-diphenyltetrazolium bromide (MTT; Sigma Chemical Co.) dye exclusion assay was performed, and after 48 h (37 °C, 5% CO2 in a humid atmosphere), 10 μL of MTT (5 mg/mL in phosphate-buffered saline, PBS) was added to each well and incubated for 3 h at 37 °C. After the supernatant was discarded, we solved the formazan crystal in 100 µL of DMSO. The absorbance was then registered at 550 nm using a plate lector. For all concentrations of any compound, cell viability was expressed as the percentage of the ratio between the mean absorbance of the treated cells and the mean absorbance of the untreated cells. Three to five experiments were performed to establish the IC50 values (i.e., concentration half inhibiting cell proliferation, we used GraphPad Prism 7 software).

[3] = test system: HEK-293 (human embryonic kidney cells); assay: MTT cell proliferation assay, HEK-293; format: cell-based; conditions: HEK293, 48 h treatment
Procedure: as §2, §3

Jurkat T-cells = assay: MTT cell proliferation assay, Jurkat T-cells; format: cell-based; conditions: 48 h treatment
Procedure: as §2, §3

[4] = test system: A-549 (pulmonary adenocarcinoma); assay: MTT cell proliferation assay, A-549; format: cell-based; conditions: Homo sapiens, A549; MTT, 48 h treatment; read-out: IC50 A-549
Procedure: as §1

HMEC-1 endothelial cells = assay: Microvessel formation inhibition assay on Matrigel; format: cell-based, human; conditions: HMEC-1 on Matrigel
Procedure: The antiangiogenic action of the selected compounds, as well as the reference compounds, was evaluated by determining the effect on the formation of new microvessels formed by HMEC-1 endothelial cells on a Matrigel matrix.
We used IBIDI μ-slide angiogenesis plates (IBIDI, Martins ried, Germany). The wells were coated with 15 μL of Matrigel® (10 mg/mL, BD Biosciences, San Jose, CA, USA) at 4 °C and incubated at 37 °C for at least 30 min. Afterward, the HMEC-1 cells were seeded at 2 × 10^4 cells/well in 25 μL of medium and were left for 30 min at 37 °C while they attached. Then, the compounds were added in serial doses in 25 μL of the medium, and after several hours (maximum 24 h) of incubation at 37 °C, pictures for the wells were taken to evaluate the formation of microvessels.

PD-L1 = molecular target: T1, PD-L1 (Homo sapiens, UniProt Q9NZQ7); assay: PD-L1 relative quantification by flow cytometry in HT-29 cells; format: cell-based; conditions: for total PD-L1 (%) expression: HT-29 cells, 24 h, relative to DMSO control = 100
T1 construct: assess the effect of our new ureas on these two proteins only on the HT-29 cancer cell line through the use of flow cytometry; endogenous in cells; host or cells: HT-29
Procedure: (§4) The cells were incubated for a period of time of one day with doses of each of the selected compounds at two different doses: 20 and 100 µM concentrations.
(§5) The effects of the compounds on the target in the cancer cell lines compounds were tested using 20 and 100 µM doses. For that, 10^5 cells per well were seeded on a 12-well plate for 24 h with the corresponding dose of the tested compound in a total volume of 500 μL of cell media. To determine the total PD-L1 and VEGFR-2, the cells were collected and fixed with 4% in a PBS of formaldehyde. After this, a treatment with 0.5% in PBS Triton^TM X-100 permeabilized the membranes. Finally, the cells were treated with FITC Mouse monoclonal Anti-Human VEGFR-2 (ab184903) and Alexa Fluor® 647 Rabbit monoclonal Anti-PD-L1 (ab215251).
(§6) To determine surface PD-L1 and VEGFR-2, the assay used was similar to the above but avoided the permeabilization step (Triton^TM X-100).

[5] = test system: THP-1 cells co-cultured with HT-29; assay: Immune cell proliferation in co-cultures of HT-29/THP-1; format: cell-based, human; conditions: 100 μM
Procedure: We also determined the effect of the selected compounds on the human monocyte cells THP-1 in the described co-cultures (see Table 6).
(§7) To determine the action of the compounds on cancer cell proliferation in co-culture with immune cells, 10^5 or 2 × 10^5 of the HT-29 cells line were seeded in each well of 12-well plates and left at 37 °C for 24 h. Then, the cancer cells were treated with IFN-γ (10 ng/mL; human, Invitrogen®, Waltham, MA, USA) containing 5 × 10^5 or 10^5, respectively, of THP-1 cells per well and the corresponding compound at 100 μM or DMSO for the positive control. After 24 h/48 h of incubation, the supernatants were collected to establish the alive THP-1 cells using FSC and SCC flow cytometry. In addition, cancer cells were collected with trypsin, fixed with 4% in PBS paraformaldehyde and counted using flow cytometry.

CD11b = CD11b detection on membrane of co-cultured THP-1; format: cell-based, human; conditions: 1:5 HT-29/THP-1; 24 h; relative to non-treated co-cultured THP-1
Excerpt: (§8) Reducing the expression of CD11b has become a promising target for immune modulation in anticancer therapies. For that reason, we decided to study the effect of our compounds on CD11b in THP-1 cells co-cultured with HT-29. We also determined the relative amount of CD80, a common surface marker for monocytes.
(§9) The results are related to non-treated THP-1 cells when they were co-cultured with HT-29.
(§10) The action of the compounds on CDs in co-cultured THP-1 immune cells with cancer cell line HT-29 was tested by treating them with the compounds for 24 h/48 h (see Section 4.2.5). Surface CD11b and CD80 was determined by collecting THP-1 with trypsin, fixing with formaldehyde and staining with FITC Mouse monoclonal Anti-Human CD80 (Sigma-Aldrich SAB4700142) and Alexa Fluor® 647 Rabbit monoclonal Anti-CD11b (Merck #MABF366, Rahway, NJ, USA).

VEGFR-2 = molecular target: T2, VEGFR-2 (Homo sapiens, UniProt P35968); assay: VEGFR-2 relative quantification by flow cytometry in HT-29 cells; format: cell-based; conditions: HT-29 cells, 20 μM, 24 h, relative to DMSO control = 100
T2 construct: assess the effect of our new ureas on these two proteins only on the HT-29 cancer cell line through the use of flow cytometry; endogenous in cells; host or cells: HT-29
Procedure: as §4
as §5, with “membranes.” for “membranes. Finally, the cells were treated with FITC Mouse monoclonal Anti-Human VEGFR-2 (ab184903) and Alexa Fluor® 647 Rabbit monoclonal Anti-PD-L1 (ab215251).”
as §6

CD80 = CD80 detection on membrane of co-cultured THP-1; format: cell-based, human; conditions: 1:5 HT-29/THP-1; 24 h; relative to non-treated co-cultured THP-1
Excerpt: as §8, §9, §10

[6] = test system: HT-29 cells co-cultured with THP-1; assay: Cancer cell proliferation in co-cultures of HT-29 and THP-1; format: cell-based, human; conditions: 100 μM
Procedure: To establish the potential of the selected compounds as immunomodulator agents, we studied the effect of the selected compounds on HT-29 cell proliferation when co-cultured with human monocytic leukemia cell line THP-1. For the study, we used different proportions of cancer and immune cells. Standard protocol proportions were 1:5 cancer/immune cells. We include a test using a 2:1 proportion of HT-29 cells to THP-1 cells. The tests were performed for two periods of time: 24 and 48 h, using 100 μM doses of the selected compounds and BMS-8 as the reference compound.
as §7

T1 sequence (Q9NZQ7 19-290): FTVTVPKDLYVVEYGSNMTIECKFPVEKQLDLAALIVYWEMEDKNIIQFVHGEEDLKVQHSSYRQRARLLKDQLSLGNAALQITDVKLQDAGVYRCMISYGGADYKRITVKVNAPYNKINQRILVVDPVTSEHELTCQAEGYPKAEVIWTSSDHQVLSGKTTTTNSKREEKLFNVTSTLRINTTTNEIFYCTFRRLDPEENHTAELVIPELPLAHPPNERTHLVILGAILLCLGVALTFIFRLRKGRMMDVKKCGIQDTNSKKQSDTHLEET
T2 sequence (P35968 20-1356): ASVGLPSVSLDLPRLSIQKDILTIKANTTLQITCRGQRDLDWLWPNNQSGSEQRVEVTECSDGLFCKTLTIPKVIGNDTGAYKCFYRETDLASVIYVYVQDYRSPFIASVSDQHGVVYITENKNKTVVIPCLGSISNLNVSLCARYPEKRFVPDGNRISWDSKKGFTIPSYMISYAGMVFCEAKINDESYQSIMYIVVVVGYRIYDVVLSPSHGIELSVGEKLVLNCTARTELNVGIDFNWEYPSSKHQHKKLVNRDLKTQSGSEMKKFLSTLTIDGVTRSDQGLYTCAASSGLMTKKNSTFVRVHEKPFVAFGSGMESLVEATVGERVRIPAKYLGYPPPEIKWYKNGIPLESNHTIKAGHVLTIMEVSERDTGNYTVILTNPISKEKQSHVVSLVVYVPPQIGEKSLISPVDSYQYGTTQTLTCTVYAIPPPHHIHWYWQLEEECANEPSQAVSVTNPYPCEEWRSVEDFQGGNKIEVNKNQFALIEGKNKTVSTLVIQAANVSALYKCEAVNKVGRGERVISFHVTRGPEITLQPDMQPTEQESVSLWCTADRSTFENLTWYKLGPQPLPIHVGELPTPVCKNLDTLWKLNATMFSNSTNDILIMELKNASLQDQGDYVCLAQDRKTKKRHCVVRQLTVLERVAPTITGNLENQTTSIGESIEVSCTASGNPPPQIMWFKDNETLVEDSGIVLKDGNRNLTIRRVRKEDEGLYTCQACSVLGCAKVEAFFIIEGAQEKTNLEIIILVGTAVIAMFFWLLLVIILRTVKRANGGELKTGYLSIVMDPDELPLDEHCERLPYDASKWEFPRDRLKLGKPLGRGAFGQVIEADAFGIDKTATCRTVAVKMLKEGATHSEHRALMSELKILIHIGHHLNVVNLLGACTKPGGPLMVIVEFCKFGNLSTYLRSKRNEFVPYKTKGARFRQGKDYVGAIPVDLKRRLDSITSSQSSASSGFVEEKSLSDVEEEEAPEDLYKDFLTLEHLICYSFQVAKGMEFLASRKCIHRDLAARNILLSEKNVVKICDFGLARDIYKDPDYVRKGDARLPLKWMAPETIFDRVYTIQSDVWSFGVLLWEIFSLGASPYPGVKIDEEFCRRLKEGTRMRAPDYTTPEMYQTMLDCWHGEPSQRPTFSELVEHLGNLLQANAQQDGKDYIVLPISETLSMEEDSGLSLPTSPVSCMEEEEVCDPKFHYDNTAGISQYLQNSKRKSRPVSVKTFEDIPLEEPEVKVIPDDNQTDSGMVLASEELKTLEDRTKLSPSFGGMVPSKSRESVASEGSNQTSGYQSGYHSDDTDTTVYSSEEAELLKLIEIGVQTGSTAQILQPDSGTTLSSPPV

| Structure (SMILES) | IC50 [1] | IC50 ([2]; Homo sapiens, HMEC-1, 48 h) | IC50 [3] | IC50 (Jurkat T-cells; Homo sapiens, Jurkat, 48 h) | melting point | IC50 [4] | IC50 (Jurkat T-cells) | also measured |
| --- | --- | --- | --- | --- | --- | --- | --- | --- |
| COc1ccc(CCCc2cccc(NC(=O)Nc3ccccc3)c2)cc1 [C.2] | 25 ± 5 µM | > 100 µM | 12 ± 1 µM | > 100 µM | 157 to 159 °C | > 100 µM | – | – |
| CNC(=O)c1cc(Oc2ccc(NC(=O)Nc3ccc(Cl)c(C(F)(F)F)c3)cc2)ccn1 [Sorafenib, sorafenib, reference compound] | 17 ± 4 µM | 34 ± 3 µM | 5 ± 0.7 µM | – | – | 27 ± 2 µM | – | Minimum Active Conc. inhibiting microtube formation (HMEC-1 endothelial cells): 10 µM; effect on total PD-L1 (PD-L1; HT-29, at either of the tested doses (20 and 100 μM)): No significant effect; total PD-L1 (%) expression (PD-L1; 20 μM): 96 ± 49%; total PD-L1 (%) expression (PD-L1; 100 μM): 102 ± 10% |
| COc1ccc(CCCc2cccc(NC(=O)Nc3ccccc3F)c2)cc1 [C.5] | 58 ± 16 µM | > 100 µM | 24 ± 4 µM | > 100 µM | 152 °C | 29 ± 5 µM | – | – |
| COc1ccc(CCCc2cccc(NC(=O)Nc3ccccc3Cl)c2)cc1 [C.8] | 47 ± 2 µM | > 100 µM | 37 ± 8 µM | > 100 µM | 134 to 136 °C | > 100 µM | – | – |
| COc1ccc(CCCc2cccc(NC(=O)Nc3ccc(Cl)cc3)c2)cc1 [C.6] | 4 ± 1 µM | > 100 µM | 4 ± 1 µM | > 100 µM | 179 to 182 °C | 20 ± 10 µM | – | – |
| COc1ccc(CCCc2cccc(NC(=O)Nc3cccc(Br)c3)c2)cc1 [C.10] | 11 ± 2 µM | ~20 µM | 9 ± 4 µM | ~20 µM | 141 to 144 °C | 8 ± 2 µM | 18 ± 7 µM | IC50 [2]: 17 ± 7 µM |
| Cc1c(COc2ccc(CN3CCCCC3C(=O)O)cc2Br)cccc1-c1ccccc1 (stereo not drawn) [BMS-8, reference compound] | 19 ± 2 µM | – | 60 ± 10 µM | > 100 µM | – | 6 ± 1 µM | – | THP-1 cell proliferation in co-culture ([5]; 1:5 HT-29/THP-1, 24 h): 158 ± 6; THP-1 cell proliferation in co-culture ([5]; 1:5 HT-29/THP-1, 48 h): 124 ± 0; THP-1 cell proliferation in co-culture ([5]; 2:1 HT-29/THP-1, 24 h): 385 ± 12; THP-1 cell proliferation in co-culture ([5]; 2:1 HT-29/THP-1, 48 h): 186 ± 10; % CD11b expression in membrane of THP-1 (CD11b): 79 ± 5%; total VEGFR-2 (%) expression (VEGFR-2): 86 ± 21%; % CD80 expression in membrane of THP-1 (CD80): 93 ± 3%; inhibition of PD-L1 expression (PD-L1; HT-29, total PD-L1, 20 μM): around 15%; total PD-L1 (%) expression (PD-L1; 20 μM): 82 ± 21%; total PD-L1 (%) expression (PD-L1; 100 μM): 67 ± 20%; HT-29 cancer cell proliferation in co-culture ([6]; 1:5 HT-29/THP-1, 24 h): 11 ± 6; HT-29 cancer cell proliferation in co-culture ([6]; 1:5 HT-29/THP-1, 48 h): 21 ± 3; HT-29 cancer cell proliferation in co-culture ([6]; 2:1 HT-29/THP-1, 24 h): 8 ± 1; HT-29 cancer cell proliferation in co-culture ([6]; 2:1 HT-29/THP-1, 48 h): 16 ± 2 |
| COc1ccc(CCCc2cccc(NC(=O)Nc3ccccc3Br)c2)cc1 [C.11] | 15 ± 4 µM | ~20 µM | 27 ± 4 µM | ~20 µM | 137 to 140 °C | 20 ± 5 µM | 26 ± 18 µM | IC50 [2]: 25 ± 1 µM |
| COc1ccc(CCCc2cccc(NC(=O)Nc3cccc(F)c3)c2)cc1 [C.4] | > 100 µM | > 100 µM | 22 ± 5 µM | > 100 µM | 154 °C | > 100 µM | – | – |
| COc1ccc(CCCc2cccc(NC(=O)Nc3cccc(Cl)c3)c2)cc1 [C.7] | 14 ± 3 µM | ~20 µM | 14 ± 3 µM | ~20 µM | 143 to 147 °C | 19 ± 1 µM | 17 ± 1 µM | IC50 [2]: 18 ± 8 µM |
| CCN(CC)CCNC(=O)c1c(C)[nH]c(/C=C2\C(=O)Nc3ccc(F)cc32)c1C [Sunitinib, reference compound] | – | – | – | – | – | – | – | Minimum Active Conc. inhibiting microtube formation (HMEC-1 endothelial cells): 3 µM |
| COc1ccc(CCCc2cccc(NC(=O)Nc3cccc(OC)c3)c2)cc1 [C.13] | 8 ± 5 µM | ~20 µM | 15 ± 3 µM | ~20 µM | 107 to 110 °C | 18 ± 5 µM | 24 ± 4 µM | – |
| COc1ccc(CCCc2cccc(NC(=O)Nc3ccc(Br)cc3)c2)cc1 [C.9] | 1.9 ± 0.6 µM | > 100 µM | 2.1 ± 0.2 µM | > 100 µM | – | 7 ± 1 µM | – | – |
